{"source": "ChEMBL document CHEMBL1142687", "about": "“New approaches toward anti-HIV chemotherapy” (J Med Chem, 2005)", "key": {"[1]": {"system": "Human immunodeficiency virus 1", "assay": "Fold reduction in plasma HIV RNAafter intravenous administration of 100 mg twice daily (1.5-2.0)", "type": "functional"}, "[2]": {"system": "Human immunodeficiency virus 1", "assay": "Effective concentration of the compound to inhibit the replication of human immunodeficiency virus type 1", "type": "functional, organism-based"}, "[3]": {"system": "Human immunodeficiency virus 1", "assay": "Effective concentration against human immunodeficiency virus type 1 strains; (0.3-0.5 nM)", "type": "functional, organism-based"}, "Cell line [4]": {"system": "Cell line", "assay": "Reduction of viral load after oral administration at 100 mg for 8 weeks; expressed as log10 reduction", "type": "functional, Homo sapiens"}, "[5]": {"assay": "Inhibitory concentration to inhibit cell to cell fusion based on C14 linkmid (a short constrained peptide)", "type": "functional"}, "[6]": {"system": "Human immunodeficiency virus 1", "assay": "Inhibitory concentration to inhibit HIV-1 mediated cell to cell fusion", "type": "functional, organism-based"}, "[7]": {"system": "Human immunodeficiency virus 1", "assay": "Effective concentration of the compound against human immunodeficiency virus type 1", "type": "functional, organism-based"}, "[8]": {"system": "Human immunodeficiency virus 1", "assay": "Selectivity index against human immunodeficiency virus type 1", "type": "functional"}, "Cell line [9]": {"system": "Cell line", "assay": "Mean decrease in viral load in humans after administration of 25 mg once a day; expressed as log 10 reduction", "type": "functional, Homo sapiens"}, "Cell line [10]": {"system": "Cell line", "assay": "Mean decrease in viral load in humans after administration of 100 mg twice a day; expressed as log10 reduction", "type": "functional, Homo sapiens"}, "[11]": {"target": "C-C chemokine receptor type 5 (Homo sapiens) (UniProt P51681)", "sequence (P51681 whole entry, looked up)": "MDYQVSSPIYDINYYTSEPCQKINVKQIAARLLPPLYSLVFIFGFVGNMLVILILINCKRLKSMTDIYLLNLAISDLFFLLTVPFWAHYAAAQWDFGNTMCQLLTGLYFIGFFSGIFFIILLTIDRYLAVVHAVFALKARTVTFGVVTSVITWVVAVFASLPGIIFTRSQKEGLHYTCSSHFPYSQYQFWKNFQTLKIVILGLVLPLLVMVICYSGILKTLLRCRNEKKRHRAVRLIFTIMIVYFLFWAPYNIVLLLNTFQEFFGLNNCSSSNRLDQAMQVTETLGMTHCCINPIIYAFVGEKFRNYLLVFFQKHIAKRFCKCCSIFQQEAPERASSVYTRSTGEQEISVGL", "description": "Inhibitory concentration against human immunodeficiency virus isolates utilizing C-C chemokine receptor type 5 for cell entry"}, "Cell line [12]": {"system": "Cell line", "assay": "Reduction of viral load after administration at 25 mg, twice daily for 10 days with antiretrovirals; expressed as log10 reduction; (0.5-1 )", "type": "functional, Homo sapiens"}, "[13]": {"system": "Human immunodeficiency virus 1", "assay": "(§1) Effective concentration to inhibit the replication of HIV-1 R5 strain", "type": "functional"}, "[14]": {"assay": "Oral bioavailability in monkeys", "type": "ADME, organism-based", "conditions": "cercopithecidae, in vivo, read-out: Bioavailabiility"}, "[15]": {"system": "Human immunodeficiency virus 1", "assay": "as §1", "type": "functional, organism-based"}, "[16]": {"assay": "Oral bioavailability in fasted rats", "type": "ADME, organism-based", "conditions": "rat, in vivo, read-out: Bioavailabiility"}, "[17]": {"system": "Human immunodeficiency virus 1", "assay": "Cytotoxic concentration of the compound to inhibit HIV 1 replication", "type": "functional"}, "[18]": {"system": "Human immunodeficiency virus 1", "assay": "Effective concentration of the compound to inhibit human immunodeficiency virus type 1 replication", "type": "functional, organism-based"}}, "data": [{"compound": "enfuvirtide", "values": [{"measurement": "Reduction", "setting": "[1]", "result": 2}]}, {"compound": "O=[N+]([O-])c1ccc(C2c3c(O)nc(S)nc3Oc3nc(S)nc(O)c32)cc1", "values": [{"measurement": "EC50", "setting": "[2]", "result": 8900, "unit": "nM"}]}, {"compound": "COc1ccc(S(=O)(=O)N(CC(C)C)C[C@@H](O)[C@H](Cc2ccccc2)NC(=O)O[C@H]2CO[C@H]3OCC[C@H]32)cc1", "values": [{"measurement": "EC50", "setting": "[3]", "result": 0.5, "unit": "nM"}]}, {"compound": "O=C1Nc2ccc(Cl)cc2[C@@](/C=C/C2CC2)(C(F)(F)F)N1", "values": [{"measurement": "Reduction", "setting": "Cell line [4]", "result": 1.28}]}, {"compound": "CC(C)Cc1cc(-c2ccc(-c3ccc(CCC(=O)O)cc3CC(C)C)cc2C(C)C)ccc1OCC(=O)O", "values": [{"measurement": "IC50", "setting": "[5]", "result": 35000, "unit": "nM"}, {"measurement": "IC50", "setting": "[6]", "result": "~15", "unit": "µg/mL"}]}, {"compound": "Cc1ccc(C)c(CSc2c(Cl)ccc[n+]2[O-])c1", "values": [{"measurement": "EC50", "setting": "[7]", "result": 0.05, "unit": "µg/mL"}, {"measurement": "SI", "setting": "[8]", "result": "~760"}]}, {"compound": "Cc1nnc(C(C)C)n1[C@H]1CC2CC[C@@H](C1)N2CC[C@H](NC(=O)C1CCC(F)(F)CC1)c1ccccc1", "note": "(single isomer, unassigned) [MARAVIROC]", "values": [{"measurement": "Activity", "setting": "Cell line [9]", "result": 0.42}, {"measurement": "Activity", "setting": "Cell line [10]", "result": 1.42}, {"measurement": "IC90", "setting": "[11]", "result": "< 10", "unit": "nM"}]}, {"compound": "COC[C@@H](c1ccc(C(F)(F)F)cc1)N1CCN(C2(C)CCN(C(=O)c3c(C)ncnc3C)CC2)C[C@@H]1C", "note": "[VICRIVIROC]", "values": [{"measurement": "Reduction", "setting": "Cell line [12]", "result": 1}]}, {"compound": "CC(=O)N1CCC(C(=O)N(CCCN2CCC(Cc3ccc(C(N)=O)cc3)CC2)c2ccc(C)c(Cl)c2)CC1", "values": [{"measurement": "EC90", "setting": "[13]", "result": 13, "unit": "nM"}, {"measurement": "bioavailability", "setting": "[14]", "result": 28.5, "unit": "%"}, {"measurement": "EC50", "setting": "[15]", "result": 1.1, "unit": "nM"}, {"measurement": "bioavailability", "setting": "[16]", "result": 9.5, "unit": "%"}]}, {"compound": "O=C(/C=C(\\O)c1ccc(Cc2ccc(F)cc2)o1)c1nc[nH]n1", "values": [{"measurement": "CC50", "setting": "[17]", "result": 110000, "unit": "nM"}, {"measurement": "EC50", "setting": "[18]", "result": 140, "unit": "nM"}]}]}
